Results reported in PMC8434491, “Targeting the Integrated Stress Response Kinase GCN2 to Modulate Retroviral Integration” (Molecules, 2021).

Legend:
GCN2 = target: T1, GCN2 (Homo sapiens, UniProt Q9P2K8); test: In vitro phosphorylation assay: GCN2 activation (auto-phosphorylation); format: biochemical; settings: with IN
T1 construct: expressed as a truncated version (192-1024) in fusion after a glutathione S-transferase tag; purchased SignalChem E12-11G
T1 sequence (Q9P2K8 192-1024): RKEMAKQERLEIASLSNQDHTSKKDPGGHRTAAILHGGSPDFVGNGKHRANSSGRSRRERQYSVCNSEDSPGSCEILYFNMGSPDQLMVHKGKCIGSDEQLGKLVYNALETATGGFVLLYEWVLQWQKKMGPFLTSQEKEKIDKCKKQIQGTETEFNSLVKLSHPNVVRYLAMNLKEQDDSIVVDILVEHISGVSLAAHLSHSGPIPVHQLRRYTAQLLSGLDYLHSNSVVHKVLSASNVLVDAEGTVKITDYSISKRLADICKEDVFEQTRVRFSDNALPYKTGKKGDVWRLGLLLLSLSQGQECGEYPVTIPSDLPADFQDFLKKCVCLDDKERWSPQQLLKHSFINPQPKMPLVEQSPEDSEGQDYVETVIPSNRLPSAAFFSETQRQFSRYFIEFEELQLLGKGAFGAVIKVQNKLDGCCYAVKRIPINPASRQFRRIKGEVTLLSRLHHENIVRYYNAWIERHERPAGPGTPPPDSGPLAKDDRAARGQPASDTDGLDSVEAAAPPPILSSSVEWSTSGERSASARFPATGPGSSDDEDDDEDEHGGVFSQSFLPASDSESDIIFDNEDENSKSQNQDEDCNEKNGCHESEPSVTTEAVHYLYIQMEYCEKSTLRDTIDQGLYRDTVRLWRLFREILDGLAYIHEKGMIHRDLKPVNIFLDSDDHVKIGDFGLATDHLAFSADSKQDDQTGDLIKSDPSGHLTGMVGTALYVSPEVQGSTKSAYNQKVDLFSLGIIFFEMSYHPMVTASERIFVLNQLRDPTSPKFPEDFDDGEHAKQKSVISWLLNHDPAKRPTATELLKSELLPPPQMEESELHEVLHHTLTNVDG
Source text: Enzymes. GCN2 was purchased from SignalChem (EIF2AK4, cat. #E12-11G). This human recombinant protein was expressed as a truncated version (192-1024) in fusion after a glutathione S-transferase tag (approximate molecular weight of 132 kDa). Recombinant full-length IN was expressed in E. coli BL21 pLys (IPTG induction) and purified on a nickel chelating column, as described. Integrity and purity were checked by direct Coomassie coloration of elution fractions on SDS-PAGE before dialysis to remove imidazole. Protein concentration was determined using a NanoDrop 2000 with the following parameters: molecular weight: 34 kDa, extinction coefficient ϵ = 50,460 mol^−1cm^−1L.
In vitro phosphorylation assay. Phosphorylation of IN (700 nM) was carried out using 25 nM of GCN2 in a reaction buffer containing 10 mM Tris-HCl pH 7.5, 50 mM NaCl, 15 mM MgCl2, 7.5 mM MnCl2, 10 mM DTT, 0.005% Nonidet P-40, 100 µM ATP, 50 µCi/µL of [γ-^32P]-ATP (3000 Ci/mmole, Perkin Elmer). Reactions (20 µL) were stopped after a 60 min incubation at 30 °C by adding 10 µL of loading buffer [80 mM Tris-HCl pH 6.8, 100 mM DTT, 10% glycerol, 1% sodium dodecyl sulfate (SDS) and 0.05% bromophenol blue]. Samples were then loaded onto a 10% denaturating SDS-PAGE. After protein separation (120 V for 120 min) the gel was stained using Coomassie Brilliant Blue R-250. Autoradiography was performed using an imaging plate (Fujifilm, Tokyo, Japan) and images were obtained with a FLA-5000 Imaging System (Fujifilm).

HIV-1 IN = target: T2, HIV-1 IN (Human immunodeficiency virus type 1 group M subtype B, UniProt P04585); test: Integrase reaction, strand transfer (ST), gel-based; format: biochemical; settings: serial dilutions from 100 µM to 45.7 nM
T2 construct: Recombinant full-length IN was expressed in E. coli BL21 pLys; 6xHis; made in house; host or cells: E. coli BL21 pLys
Procedure: Oligonucleotides. Oligonucleotides were purchased from Integrated DNA Technologies, Inc. (Leuven, Belgium), purified on polyacrylamide gel through electro-elution and dissolve in water. 19T ([…]) and 21B ([…]) correspond to the cleaved and non-cleaved strands specifically recognized by HIV-1 IN. Radiolabeling of 19T at the 5′-end was performed with [γ-^32P] ATP (Perkin-Elmer, Villebon-sur-Yvette, France) using T4 polynucleotide kinase (Promega, Charbonnières-les-Bains, France), according to the manufacturers’ instructions. Unincorporated isotopes were removed using illustra microspin G-25 Columns (Cytiva life sciences, Amersham, Little Chalfont, United Kingdom). DNA duplexes were annealed using an equimolar ratio of the complementary strand 21B, heating to 95 °C, and slow cooling to room temperature.
Integrase reactions. IN reactions were carried out by adding molecules or an equivalent volume of 100% DMSO (dimethyl sulfoxide, used as the drug solvent) to a mixture of 20 nM duplex DNA (19T/21B) and 400 nM IN in 50 mM MOPS pH 7.2, 7.5 mM MgCl2, and 14 mM 2-mercaptoethanol. Reactions were performed at 37 °C for 1 h and quenched by addition of an equal volume (10 µL) of loading buffer [formamide containing 1% SDS (sodium dodecyl sulfate), 0.25% bromophenol blue, and xylene cyanol]. Reaction products were separated in 16% polyacrylamide denaturing sequencing gels. Dried gels were visualized using a FLA-5000 imaging system (Fujifilm). Densitometric analyses were performed using the ImageQuant 5.1 software (GE Healthcare, Chicago, IL, USA) and data analyzed using Prism 6.05 software (GraphPad, San Diego, CA, USA).

O=C1c2c(O)ccc(O)c2C(=O)c2c(NCCNCCO)ccc(NCCNCCO)c21 [NSC279836, Mitoxantrone]
remaining activity at 100 µM (GCN2; 100 µM, read-out: GCN2 auto-phosphorylation signal, % of the DMSO control): 171%
effect on GCN2 auto-phosphorylation in dose-response (GCN2; serial dilutions from 300 µM to 137 nM): reproducible increase
concentrations giving full inhibition of ST activity (HIV-1 IN; only IN present): above 11 µM
effect on IN strand transfer activity (HIV-1 IN; only IN present): active
apparent IC50, ST activity (HIV-1 IN; in words): low-micromolar range
